# Results from patent US4960765A, “Pharmaceutical composition and method for the treatment of colitis ulcerosa and Crohn's disease by oral administration” (priority 1989, dated 1990).
# “Also recorded” adds a separate entry of the source. Like-named read-outs stand apart in the source and are kept apart here.
# How the values were obtained:
# [1] = cited from earlier work
# colitis ulcerosa = settings: cited from earlier work; for therapeutic role on rectal administration: Azad Khan et al.
# [2] = Urinary excretion in healthy volunteers; assay type: in vivo, human (healthy volunteers)
# Excerpt: It is the purpose of the clinical studies described below to estimate the bioavailability of a sustained-release type 5-ASA tablet (Pentasea®) of the composition described above in the example by the study of 5-ASA/5-AcASA plasma levels in healthy volunteers as well as the excretion pattern in urine and faces.
# (§1) DETERMINATION OF 5-ASA AND 5-AcASA IN BIOLOGICAL FLUIDS
# (§2) Procedures for the determination of 5ASA and 5AcASA in ileostomy effluents, feces, urine and blood were based on a newly developed HPLC assay combined with flurescens spectophotometry.
# Fourteen healthy persons consented to volunteer. They had no previous or present symptoms or signs of gastrointestinal or other disease apart from uncomplicated appendectomy. There were seven females and seven males. Mean age and age range were for the women 32.4 years and 29-37 years, and for the males 32 years and 24-40 years, respectively. Mean body weight and weight range were for the females 58.6 kg and 53-67 kg, and for the males 70.9 kg and 60-83 kg, respectively. There were eight slow and 6 fast acetylators.
# Each subject took two 5-ASA tablets, i.e. 500 mg 5-ASA, three times a day for six days, at 8 a.m., 4 p.m. and at midnight except for the first day, where the two first ingestions took place at 9 a.m. and 5 p.m. The injections are shown by arrows on FIG. 5 and 6. The two tablets at 8 a.m. were taken by the fasting subject. Venous blood samples for determination of 5-ASA and 5-AsASA were drawn at intevals throughout the first day (FIG. 5) and at 7.50 the following five days(i.e. before the 8 a.m. tablets were ingested) (FIG. 6). Twenty-four hour urine and faecal smaples were collected on the 6th day for quantitative determination of 5-ASA and 5-AcASA. EVery day throughout the study peroid of six days a single faecal sample was analgzed qualitatively for the presence of 5-ASA and 5-AcASA.
# [3] = Urinary excretion in ileostomy patients; assay type: in vivo, human (ileostomy patients)
# Method: DETERMINATION OF 5-[…] BIOLOGICAL FLUIDS […] Six ileostomy patients colectomized because of colitis ulcerosa with intact small bowel were studied. Their distribution as to sex, age, height, body weight, time since colectomy, small bowel transit time (carmine), and acetylator phenotype (v. Fischer and Klotz, op. cit.) (assessed by sulphadimidine) are shown below in talbe I. […] Ileostomy effluents were collected every hour for eight hours (FIGS. 1+2) urine was collected over an 8 hour period and venous blood was drawn at intervals through the first eight hours (FIGS. 3 and 4).
# [4] = oral 5-ASA; rats; cited from earlier work
# [5] = Ileostomy effluent study (5-ASA / 5-AcASA excretion) in ileostomy patients; assay type: in vivo, human (ileostomy patients); settings: for detection in ileostomy secretions: first two hours, 500 mg 5-ASA single oral dose; for excretion rate in ileostomy effluents: following hours up to 8 hours after ingestion
# Excerpt: DETERMINATION OF 5-[…] BIOLOGICAL FLUIDS […] ILEOSTOMY PATIENTS Six ileostomy patients colectomized because of colitis ulcerosa with intact small bowel were studied. Their distribution as to sex, age, height, body weight, time since colectomy, small bowel transit time (carmine), and acetylator phenotype (v. Fischer and Klotz, op. cit.) (assessed by sulphadimidine) are shown below in talbe I. ILEOSTOMY PATIENTS […] Ileostomy effluents were collected every hour for eight hours (FIGS. 1+2) urine was collected over an 8 hour period and venous blood was drawn at intervals through the first eight hours (FIGS. 3 and 4).
# [6] = Plasma concentrations in healthy volunteers; assay type: in vivo, human (healthy volunteers)
# Method: (§3) Each subject took two 5-ASA tablets, i.e. 500 mg 5-ASA, three times a day for six days, at 8 a.m., 4 p.m. and at midnight except for the first day, where the two first ingestions took place at 9 a.m. and 5 p.m. […] The two tablets at 8 a.m. were taken by the fasting subject. Venous blood samples for determination of 5-ASA and 5-AsASA were drawn at intevals throughout the first day (FIG. 5) and at 7.50 the following five days(i.e. before the 8 a.m. tablets were ingested) (FIG. 6). Twenty-four hour urine and faecal smaples were collected on the 6th day for quantitative determination of 5-ASA and 5-AcASA. EVery day throughout the study peroid of six days a single faecal sample was analgzed qualitatively for the presence of 5-ASA and 5-AcASA.
# [7] = cited from earlier work; for amounts observed in the feces: oral 5-ASA, healthy volunteers
# [8] = Faecal excretion and total recovery in healthy volunteers; assay type: in vivo, human (healthy volunteers); settings: for daily qualitative faecal analysis: morning samples from day 2 throughout the study
# Method: as §3
# [9] = tested on: inflamed mucosa in ulcerative colitis; settings: enema; compared with 5-ASA; cited from earlier work
# [10] = Plasma concentrations in ileostomy patients; assay type: in vivo, human (ileostomy patients); settings: half an hour after ingestion of 500 mg 5-ASA
# Excerpt: as §1, §2
# Six ileostomy patients colectomized because of colitis ulcerosa with intact small bowel were studied. Their distribution as to sex, age, height, body weight, time since colectomy, small bowel transit time (carmine), and acetylator phenotype (v. Fischer and Klotz, op. cit.) (assessed by sulphadimidine) are shown below in talbe I.
# A single dose of two tablets of sustained-release 5-ASA i.e. total dose 500 mg, were ingested at 8 a.m. by the fasting patient who thereafter took a normal continental breakfast, lunch at noon, and dinner at 6 p.m. Ileostomy effluents were collected every hour for eight hours (FIGS. 1+2) urine was collected over an 8 hour period and venous blood was drawn at intervals through the first eight hours (FIGS. 3 and 4).
# Crohn's disease = settings: cited from earlier work
# [11] = cited from earlier work; remark: listed apart in the source
structure (smiles),measurement,setting,value
"Nc1ccc(S(=O)(=O)Nc2ccccn2)cc1 [SP, sulfapyridine]",absorption from the colon,[1]; after SASP,highly absorbed from the colon
same,therapeutic role on rectal administration,colitis ulcerosa,"only acts as a ""carrier"""
"Nc1ccc(O)c(C(=O)O)c1 [5-ASA, 5-aminosalicylic acid]",urinary excretion of free 5-ASA,[2]; 500 mg t.i.d.,could not be recorded
same,5ASA found in urine,[3]; 500 mg 5-ASA single oral dose,no 5ASA was found except in one case
same,"5-ASA found in urine, one case","[3]; one patient, 500 mg 5-ASA",1.4 mg
same,absorption from the small bowel,[4],essentially completely
same,amounts observed in the feces,[4],no noticeable amounts
same,absorption from the colon,[1]; after SASP,the major part of the released 5-ASA is not absorbed
same,absorption of 5-ASA from the colon in diarrhoea,"[1]; after SASP, van Hees et al.",drastically decreased
same,serum concentrations,"[1]; in vivo, po",very low serum concentrations
same,share of collected portion as 5-ASA still retained in the granules,"[5]; 8 hours, of the 58% collected",last third
same,share of collected portion as free 5-ASA,"[5]; 8 hours, of the 58% collected",one third
same,detection in ileostomy secretions,[5],no 5-ASA or 5-AcASA could be detected
same,excretion rate in ileostomy effluents,[5]; 500 mg 5-ASA,excreted at constant rates
same,dose excreted at 48 h,"[5]; human, ileostomy effluent, po, 500 mg, one patient, collecting up to 48 hours, read-out: further 5-ASA found on expanded collection",20%
same,dose excreted at 8 h,"[5]; human, ileostomy effluent, po, 8 hours after ingestion, 500 mg 5-ASA, read-out: ingested total dose collected in the ileostomy bags",58%
same,Fa,"[5]; human, small bowel, po, 500 mg, composition of the invention, ileostomy patients, read-out: 5-ASA that may be absorbed from the small bowel",≤ 50%
same,5-ASA retained in the granules,"[5]; one patient, collecting up to 48 hours",more than one third
same,concentration at 144 h,"[6]; human, plasma, po, day six, all fourteen subjects, 500 mg t.i.d., read-out: total range of 5-ASA plasma concentrations",1200 to 2830 ng/mL
same,variation according to acetylator phenotype,[6]; slow and fast acetylators,did not show a significant variation
same,absorption from the small bowel,"[7]; free 5-ASA, oral, healthy subjects",absorbed from the small bowel in particular the jejunum; also recorded: essentially completely
same,amounts observed in the feces,[7],no noticeable amounts
same,"faecal content of granules, released and non-released 5-ASA (average total)",[8]; analysed 24 hours after collection of the faeces,5-10%
same,95% confidence limits of mean faecal excretion of free 5-ASA and 5-AsASA,"[8]; day 6, steady state",378-650 mg per 24 h
same,total mean faecal excretion of free 5-ASA and 5-AsASA,"[8]; day 6, steady state, sum of 5-ASA and 5-AsASA, mean",514 mg per 24 h
same,recovery,"[8]; human, urine and faeces, po, day 6, steady state, daily ingested total dose 1500 mg 5-ASA, read-out: mean recovery rate",83%
same,daily qualitative faecal analysis,[8],presence
same,therapeutic effect,colitis ulcerosa; Azad Khan et al. and van Hees et al.,also has therapeutic effect
same,therapeutic role on rectal administration,colitis ulcerosa,therapeutically active moiety; also recorded: exhibits a useful therapeutic activity like SASP
"CC(=O)Nc1ccc(O)c(C(=O)O)c1 [5-AcASA, N-acetyl-5-aminosalicylic acid]",95% confidence limits of mean urinary 5-AsASA excretion,"[2]; day 6, steady state",587-887 mg per 24 h
same,mean urinary 5-AsASA excretion during 24 h,"[2]; day 6, steady state, 24 h, calculated as 5-ASA, mean",737 mg
same,mean 5-AsASA found in urine,"[3]; within 8 hours, 500 mg 5-ASA, mean",60 mg
same,range of 5-AsASA found in urine,"[3]; within 8 hours, 500 mg 5-ASA, range",42 to 82 mg
same,effect on the inflamed mucosa in ulcerative colitis,[9],resembled 5-ASA in its effect on the inflamed mucosa
same,amounts observed in the feces,[4],no noticeable amounts
same,serum concentrations,"[1]; after oral administration of 4 g of SASP, Fischer and Klotz",very low serum concentrations
same,share of collected portion as free 5-AsASA,"[5]; 8 hours, of the 58% collected",another third
same,detection in ileostomy secretions,[5],no 5-ASA or 5-AcASA could be detected
same,excretion rate in ileostomy effluents,[5]; 500 mg 5-ASA,excreted at constant rates
same,plasma amounts of 5AsASA,[10],Trace amounts
same,detection in plasma and urine,"[6]; whole study, 500 mg t.i.d. for six days",only 5AcASA was detected
same,amounts observed in the feces,[7],no noticeable amounts
same,daily qualitative faecal analysis,[8],presence
"O=C(O)c1cc(/N=N/c2ccc(S(=O)(=O)Nc3ccccn3)cc2)ccc1O [SASP, salicylazosulfapyridine]",effectiveness in Crohn's disease of colon and rectum,Crohn's disease; disease extends to or limited to colon and rectum,proved effective
same,effectiveness in Crohn's disease limited to the ileum,Crohn's disease; disease limited to the ileum,not proved to be very effective
same,state on reaching the colon,[1]; oral SASP,reaches the colon intact
same,patients allergic to sulfa drugs,[11]; excludes SASP treatment,up to 10%
same,side effects,[11]; in vivo,"nausea and vomitting, skin rashes, anemia, arthralgias, headache"
